Test results reported in patent US5672707A (priority 1991, dated 1997).
Like-named read-outs stand apart in the source and are kept apart here.

What was measured:
[1] = system: rats; test: Passive avoidance test in normal rats, 50% acquisition; assay type: in vivo; details: for change in vivo at 0.1 mg/kg: Rattus norvegicus, ip, 20 min, read-out: Increase of the number of correct trails (% to control). Passive avoidance test (rats); for change in vivo at 0.1 mg/kg / Increase of the number of correct trails (% to control). Passive avoidance test (rats): rats, 0.1 mg/kg i.p. 20 min before training, piracetam 250 mg/kg 60 min before training
Experimental: (§1) Psychoneurotropic activity of the declared compounds and their influence on learning and memory were observed using unbred male (18-20 g) mice and 180-200 g) rats, held at standard conditions (room temperature 21°-22° C., 12-hours lighting schedule, food and water ad libitum).
The influence of drugs on reflex conditioning in rats was studied by the passive avoidance test in conditions of 50% acquisition. The effect of the compound was estimated by the increase of the relative number of learned animals with respect to that of control group. […] The other reference drug--noothropic agent piracetam--was given in the dose 250 mg/kg 60 min before training. Amnestic syndrome was stimulated by 20 days application of Sc at the daily dose of 1 mg/kg intraperitoneally. […] The passive avoidance test was performed within 24 hours after the last application of test preparations.

[2] = system: mice; test: Psychotropic activity test: arecoline induced hyperkynesis; assay type: in vivo; details: intraperitoneally, dose 1/20 of LD
[3] = molecular target: T1, Acetylcholinesterase, enzyme from human erythrocytes (Homo sapiens, UniProt P22303); test: Acetylcholinesterase inhibition, spectrophotometric technique of Ellman; assay type: biochemical; details: Acetylcholinesterase inhibition IC50 (M), enzyme from human erythrocytes; Table 5
T1 construct: on the enzyme from human erythrocytes; from tissue; host or cells: human erythrocytes
T1 sequence (P22303-2 with tags, fused parts or gaps limits assumed): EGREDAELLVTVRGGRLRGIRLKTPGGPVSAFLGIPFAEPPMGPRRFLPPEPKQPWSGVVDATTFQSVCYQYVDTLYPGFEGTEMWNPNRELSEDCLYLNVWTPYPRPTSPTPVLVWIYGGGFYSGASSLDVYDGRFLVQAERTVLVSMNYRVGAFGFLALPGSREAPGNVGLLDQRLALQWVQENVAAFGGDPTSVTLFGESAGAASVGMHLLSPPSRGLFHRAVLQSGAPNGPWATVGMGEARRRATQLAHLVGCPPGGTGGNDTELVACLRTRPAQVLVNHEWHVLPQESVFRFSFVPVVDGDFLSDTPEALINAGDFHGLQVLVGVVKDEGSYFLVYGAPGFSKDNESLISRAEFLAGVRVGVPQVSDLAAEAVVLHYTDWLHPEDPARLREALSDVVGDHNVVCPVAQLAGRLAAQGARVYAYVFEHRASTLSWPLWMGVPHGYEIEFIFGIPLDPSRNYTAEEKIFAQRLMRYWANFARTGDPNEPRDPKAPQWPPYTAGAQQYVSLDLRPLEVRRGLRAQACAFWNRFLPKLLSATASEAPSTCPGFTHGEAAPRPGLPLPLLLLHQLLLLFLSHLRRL
Experimental: Acetylcholinesterase inhibition under the action of preparations was assessed by the spectrophotometric technique of Ellman on the enzyme from human erythrocytes.

[4] = in vivo; details: for LD50: in vivo, ip
Experimental: as §1
Acute toxicity was studied by the method of Kerber with intra peritoneal drug injection.

[5] = system: mice; test: Psychotropic activity test: motor activity; assay type: in vivo; details: intraperitoneally, dose 1/20 of LD
[6] = system: rat adipocytes; test: Lipid composition of adipocytes after incubation with compounds; assay type: cell-based; details: cells; Table 11
Experimental: Lipid regulative activity of the declared compounds--derivatives of 9-amino acridine--were evaluated in vitro[…] using rat adipocytes. Adipocytes were separated from adipose tissue of testis appendages of adult male rats. Lipid composition analysis was performed by the method of thin-layer chromatography.
Quantitative analysis of phospholipids (PL), mono- and diacylglycerides (MDG), triacylglycerides (TG), free fatty acids (FFA), free cholesterol (FCL), and methyl esters of fatty acids (MEFA) was performed by the method of spectrophotometry.

[7] = intraperitoneal injection, Table 5, read-out: LD50 (mg/kg) by Kerber
[8] = intraperitoneal injection, Table 5

| SMILES | change in vivo at 0.1 mg/kg [1] | Increase of duration of arecoline induced hyperkynesis (% to control) [2] | IC50 [3] | LD50 [4, 7] | Motor activity increment (% to control) [5] | Performance of normal rats in passive avoidance test [1] | Increase of the number of correct trails (% to control). Passive avoidance test (rats) [1] | LD50 (mg/kg) by Kerber [4, 8] | LD50 ([4]; LD50 (mg/kg) by Kerber) | FFA/TG in adipocytes [6] | PL/CL in adipocytes [6] | PL/TG in adipocytes [6] |
| --- | --- | --- | --- | --- | --- | --- | --- | --- | --- | --- | --- | --- |
| CC1(C)CC(=O)c2c(nc3ccc(Br)cc3c2N)C1 [IVd] | 0% | 20 % to control | 5e-05 M | > 500 mg/kg | 15 % to control | – | – | – | – | – | – | – |
| Cc1ccc(C)c2c(N)c3c(nc12)CC(C)(C)CC3=O [IVf] | 0% | 0 % to control | 1.3e-05 M | 40 ± 1.2 mg/kg | 0 % to control | statistically significantly improved performance of normal rats | – | – | – | – | – | – |
| Cc1cc(C)c2nc3c(c(N)c2c1)C(=O)CC(C)(C)C3 [IVh] | 0% | 20 % to control | 3e-05 M | > 500 mg/kg | 0 % to control | – | – | – | – | – | – | – |
| Cc1ccc2nc3c(c(N)c2c1)C(=O)CC(C)(C)C3 [IVj] | 0% | 30 % to control | 3e-05 M | 63.6 ± 8.7 mg/kg | 0 % to control | – | – | – | – | – | – | – |
| CC1(C)C=Cc2c(nc3ccccc3c2NCc2ccccc2)C1 [VIIf] | – | 0 % to control | – | – | 0 % to control | – | 0 % to control | 125.0 ± 15.5 mg/kg | – | – | – | – |
| CC1(C)C=Cc2c(nc3ccccc3c2NCc2ccccc2)C1 [VIIg] | – | 0 % to control | – | – | 23 % to control | – | 0 % to control | 200.0 ± 21.9 mg/kg | – | – | – | – |
| CC1(C)C=Cc2c(nc3ccccc3c2NCc2ccccc2)C1 [VIIh] | – | 28 % to control | – | – | 13 % to control | – | 20 % to control | 116.7 ± 10.9 mg/kg | – | – | – | – |
| CC1(C)C=Cc2c(nc3ccccc3c2NCc2ccccc2)C1 [VIIm] | – | 15 % to control | – | – | 15 % to control | – | 25 % to control | 112.5 ± 10.9 mg/kg | – | – | – | – |
| CC1(C)C=Cc2c(nc3ccccc3c2NCc2ccccc2)C1 [VIIn] | – | 46 % to control | – | – | 11 % to control | – | 40 % to control | 125.0 ± 10.9 mg/kg | – | – | – | – |
| CC1(C)C=Cc2c(nc3ccccc3c2NCc2ccccc2)C1 [VIIo] | – | 0 % to control | – | – | 16 % to control | statistically significantly improved performance of normal rats | 40 % to control | 62.5 ± 7.7 mg/kg | – | – | – | – |
| CC1(C)C=Cc2c(nc3ccccc3c2NCc2ccccc2)C1 [VIIp] | – | 21 % to control | – | – | 33 % to control | statistically significantly improved performance of normal rats | 45 % to control | – | 75 ± 3.8 mg/kg | – | – | – |
| CC1(C)C=Cc2c(nc3ccccc3c2NCc2ccccc2)C1 [VIIq] | – | 30 % to control | – | – | 20 % to control | statistically significantly improved performance of normal rats | 45 % to control | 73.3 ± 4.4 mg/kg | – | – | – | – |
| CC1(C)C=Cc2c(nc3ccccc3c2NCc2ccccc2)C1 [VIIr] | – | 0 % to control | – | – | 0 % to control | statistically significantly improved performance of normal rats | 45 % to control | 69.5 ± 5.6 mg/kg | – | – | – | – |
| CC1(C)C=Cc2c(nc3ccccc3c2NCc2ccccc2)C1 [VIIu] | – | 12 % to control | – | – | 15 % to control | – | 0 % to control | 83.8 ± 5.6 mg/kg | – | – | – | – |
| CCCCNc1c2c(nc3ccccc13)CC(C)(C)CC2=O [Vs] | – | 0 % to control | – | – | 0 % to control | – | 15 % to control | 165.8 ± 14.8 mg/kg | – | – | – | – |
| CCCCNc1c2c(nc3ccccc13)CC(C)(C)CC2=O [Vt] | – | 0 % to control | – | – | 0 % to control | – | 0 % to control | 210.0 ± 9.8 mg/kg | – | – | – | – |
| CCCCNc1c2c(nc3ccccc13)CC(C)(C)CC2=O [Vu] | – | 0 % to control | – | – | 20 % to control | statistically significantly improved performance of normal rats | 30 % to control | 210.0 ± 5.8 mg/kg | – | – | – | – |
| CCCCNc1c2c(nc3ccccc13)CC(C)(C)CC2=O [Vv] | – | 15 % to control | – | – | 26 % to control | – | 25 % to control | 433.3 ± 7.8 mg/kg | – | – | – | – |
| CCCCNc1c2c(nc3ccccc13)CC(C)(C)CC2=O [Vw] | – | 10 % to control | – | – | 10 % to control | – | 10 % to control | 125.0 ± 11.8 mg/kg | – | – | – | – |
| CCCCNc1c2c(nc3ccccc13)CC(C)(C)CC2=O [Vx] | – | – | – | – | – | – | 25 % to control | 121.7 ± 15.5 mg/kg | – | – | – | – |
| CCCCNc1c2c(nc3ccccc13)CC(C)(C)CC2=O [Vy] | – | 0 % to control | – | – | 0 % to control | – | 0 % to control | 210.0 ± 14.8 mg/kg | – | – | – | – |
| CCCCNc1c2c(nc3ccccc13)CC(C)(C)CC2=O [Vz] | – | 0 % to control | – | – | 0 % to control | – | 20 % to control | 200.0 ± 21.9 mg/kg | – | – | – | – |
| CC(C)(Sc1cc(C(C)(C)C)c(O)c(C(C)(C)C)c1)Sc1cc(C(C)(C)C)c(O)c(C(C)(C)C)c1 [probucol, reference compound] | – | – | – | – | – | – | – | – | – | 1.10 | 0.84 | 0.69 |
